{"source": "patent US20110178104A1", "about": "“Anti-Heparin Compounds” (POLYMEDIX INC., priority 2010, published 2011)", "key": {"[1]": {"tested_on": "isolated human erythrocytes", "assay": "in vitro", "format": "cell-based", "how_it_was_run": "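Pooled human red cells, washed and diluted from a 0.22% stock suspension in TBS pH 7.4, were shaken with two-fold dilutions (1000 to 0.48 µg/ml) for 1 h at 37 °C. Released hemoglobin in the supernatant was read at OD405. EC50 came from a four-parameter logistic fit, with melittin as positive control.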"}, "[2]": {"assay": "Cytotoxicity colorimetric assay, HepG2", "format": "cell-based, human", "settings": "human, HepG2 cells, one hour in serum-free media", "how_it_was_run": "(§1)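 HepG2 cells (3×10^4/well, MEM + 10% FBS) and NIH/3T3 cells (2×10^4/well, DMEM + 10% BCS) were exposed to compound for 1 h in serum-free medium. Viability read by tetrazolium-to-formazan bioreduction after return to serum medium; EC50 from a four-parameter logistic fit.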"}, "HepG2 cells": {"tested_on": "HepG2 cells", "assay": "Cytotoxicity colorimetric assay, HepG2", "format": "cell-based, human", "settings": "one hour in serum-free media", "how_it_was_run": "as §1"}, "[3]": {"assay": "Cytotoxicity colorimetric assay, NIH/3T3", "format": "cell-based, mouse", "settings": "mouse, NIH/3T3 cells, one hour in serum-free media", "how_it_was_run": "as §1"}, "NIH/3T3 cells": {"tested_on": "NIH/3T3 cells", "assay": "Cytotoxicity colorimetric assay, NIH/3T3", "format": "cell-based, mouse", "settings": "one hour in serum-free media", "how_it_was_run": "as §1"}, "Unfractionated heparin": {"tested_on": "Unfractionated heparin", "assay": "aPTT clotting assay, UFH 0.4 U/mL in plasma (Example 10)", "format": "biochemical", "settings": "unfractionated heparin 0.4 U/mL in plasma; aPTT clotting", "description": "aPTT clotting Assay: Unfractionated heparin was mixed with plasma at a final concentration of 0.4 U/mL (or concentration which increases aPTT time to between 120 and 300 seconds). […] The ACL Elite Hemostasis analyzer (Beckman Coulter™) was used to add aPTT reagent (HemosIL SynthASil) to supplemented plasma. Clotting was initiated by addition of CaCl2 and time to clot was recorded."}, "UFH [4]": {"tested_on": "UFH", "assay": "In vivo neutralization of unfractionated heparin in the rat", "settings": "UFH 100 U/kg IV, 1 mg/kg dose IV", "description": "The male Sprague-Dawley rats used in this study were obtained from Charles River Laboratories, Raleigh. They were nine-weeks-old at the start of the study and their weights ranged from 279-334 g. Rats were pre-treated with UFH administered by IV injection in a tail vein at 100 U/kg in a dose volume of 1 mL/kg. The rats were then treated with a single IV injection of saline, protamine or the appropriate test compound at doses of 0.25, 0.5 and 1.0 mg/kg. All treatments were dosed in a volume of 1 mL/kg. Blood was collected via the orbital sinus from three rats per group at the following time points after treatment: predose, 1, 3, 10, 30 and 60. At each time point, 1 mL of blood was collected from each animal into a single tube. The blood was analyzed using an AMEX Destiny Plus Coagulation Analyzer for activated partial thromboplastintime (APTT) and anti-Factor Xa."}, "enoxaparin [5]": {"tested_on": "enoxaparin", "assay": "In vivo neutralization of enoxaparin in the rat", "settings": "compared with protamine"}, "enoxaparin [6]": {"tested_on": "enoxaparin", "assay": "Enoxaparin-extended bleeding times, rat tail transection model", "format": "in vivo", "description": "Studies have now been done to examine effects on extended bleeding times caused by enoxaparin treatment. Male Sprague Dawley rats (Charles River) were administered 2 mg/kg enoxaparin by IV injection in the tail vein, followed 3 minutes later by test agent (IV, tail vein) at 2 and 5 mg/kg doses. Tails were then rapidly transected and bleeding time onto an absorbant pad was determined. Enoxaparin alone (no antagonist) extends bleeding time from 11 to 24 seconds."}, "fondaparinux [7]": {"tested_on": "fondaparinux", "assay": "In vivo neutralization of fondaparinux in the rat", "settings": "fondaparinux 0.5 mg/kg IV, test agent 2 and 5 mg/kg IV"}, "blood pressure": {"tested_on": "blood pressure", "assay": "Hemodynamic responses in the anesthetized rat", "format": "in vivo"}, "[8]": {"assay": "Coagulation properties via ROTEM", "settings": "at fully efficacious doses"}, "UFH [9]": {"tested_on": "UFH", "assay": "FXa amidolytic assay (Example 10), UFH", "settings": "read-out: Heparin FXa uM EC50; UFH 0.03 units/mL; human antithrombin, bovine Factor Xa", "quoted_text": "(§2) Two μl of test agent are added (range between 0.01 and 23 ug/ml) and incubated for 5 minutes at 23° C. Bovine Factor Xa was added to a final concentration of 0.636 nkat/mL and incubated for a further 10 minutes at 23° C."}, "tinzaparin": {"tested_on": "tinzaparin", "assay": "FXa amidolytic assay (Example 10), tinzaparin", "settings": "read-out: Tinzap FXa EC50; tinzaparin 0.1 ug/ml; human antithrombin, bovine Factor Xa", "quoted_text": "as §2"}, "fondaparinux [10]": {"tested_on": "fondaparinux", "assay": "FXa amidolytic assay (Example 10), fondaparinux", "quoted_text": "as §2"}}, "note": "“And” between values parts separate entries of the source, which are not always exact repeats. Identical values can stand only once."}
{"smiles": "COc1ccc(NC(=O)[C@@H](CCCNC(=N)N)NC(=O)c2cc(NC(=O)[C@@H](CCCNC(=N)N)NC(=O)c3cc(NC(=O)[C@@H](CCCNC(=N)N)NC(=O)c4cc(NC(=O)[C@H](N)CCCNC(=N)N)ccc4OCC(=O)O)ccc3OC)ccc2OC)cc1C(N)=O", "note": "[Compound 283]", "values": [{"measurement": "hemolysis and cytotoxicity (summary)", "setting": "[1]", "result": "non-hemolytic and low cytotoxicity"}, {"measurement": "EC50", "setting": "[1]; Homo sapiens, Erythrocyte, 1 h, human RBC, 1 hour at 37° C., read-out: Hemolysis EC50", "result": "> 1000", "unit": "µg/mL"}, {"measurement": "EC50 at 1 h", "setting": "[2]", "result": 1000, "unit": "µg/mL"}, {"measurement": "Cytotoxicity HepG2 EC50", "setting": "HepG2 cells", "result": ">1000", "unit": "µg/mL"}, {"measurement": "EC50 at 1 h", "setting": "[3]", "result": 1000, "unit": "µg/mL"}, {"measurement": "Cytotoxicity 3T3 EC50", "setting": "NIH/3T3 cells", "result": ">1000", "unit": "µg/mL"}, {"measurement": "EC50", "setting": "Unfractionated heparin", "result": "1390 nM and 1840 nM"}, {"measurement": "neutralization of UFH activity in aPTT assays", "setting": "UFH [4]", "result": "complete neutralization"}, {"measurement": "in vivo efficacy versus LMWH by anti-factor Xa activity (summary)", "setting": "enoxaparin [5]", "result": "superior to protamine"}, {"measurement": "in vivo efficacy versus LMWH by bleeding time (summary)", "setting": "enoxaparin [6]; compared with protamine", "result": "superior to protamine"}, {"measurement": "neutralization of prolonged bleeding times", "setting": "enoxaparin [6]; rat, enoxaparin 2 mg/kg IV, test agent 2 mg/kg IV", "result": "completely neutralized"}, {"measurement": "reduction of Factor Xa (anti-factor Xa) levels after fondaparinux", "setting": "fondaparinux [7]", "result": "lack of effectiveness"}, {"measurement": "hemodynamic response profile", "setting": "blood pressure; anesthetized rat, 8 or 16 mg/kg 10 minute IV infusion after heparin 50 U/kg", "result": "superior to protamine"}, {"measurement": "hemodynamic liabilities (summary)", "setting": "blood pressure; rat, in vivo", "result": "reduced hemodynamic liabilities"}, {"measurement": "coagulation properties via ROTEM", "setting": "[8]", "result": "normal coagulation properties at fully efficacious doses"}, {"measurement": "EC50", "setting": "UFH [9]", "result": 0.101, "unit": "µM"}, {"measurement": "EC50", "setting": "tinzaparin", "result": "124 nM and 96 nM"}, {"measurement": "Potent LMWH-antagonists with superior anti-fondaparinux activity (summary)", "setting": "fondaparinux [10]", "result": "superior anti-fondaparinux activity"}, {"measurement": "EC50", "setting": "fondaparinux [10]; read-out: Fondap FXa EC50, fondaparinux 0.02 μg/mL, human antithrombin, bovine Factor Xa", "result": "575 nM and 530 nM and 452 nM"}]}
